# Experimental data as given in patent publication US20260265265A1, “NOVEL BENZIMIDAZOLONE DERIVATIVE COMPOUND AS AUTOTAXIN INHIBITOR” (LG CHEM, LTD., priority 2023, published 2026).
# Target: T1, Recombinant Human ENPP-2/Autotaxin (Homo sapiens, UniProt Q13822)
# T1 construct: purchased R&D systems 5255-EN
# Experiment: LysoPLD activity measurement (autotaxin enzyme inhibition, choline release, TOOS reagent)
# Assay type: biochemical
# Conditions: LysoPLD inhibitory activity; substrate 14:0 LysoPC; absorbance at 555 nm
# Method: Such a measurement method is a method of measuring the amount of choline, which is a reaction product in an autotaxin enzyme reaction, using a TOOS reagent. Depending on the activity of the autotaxin inhibitor, the amount of choline produced as a reaction product varies, which affects the final absorbance.
# After 30 min, 14:0 LysoPC of the substrate diluted to a concentration of 300 μM with the enzyme reaction buffer solution was dispensed into each well by 50 μL and allowed to stand at 37° C. for 90 minutes. At this time, negative control wells were dispensed with 1% DMSO, substrate, and autotaxin instead of the compound, and positive control wells were dispensed with 1% DMSO and substrate.
row,IC50 [nM],SMILES
1,10 to 100,"COC1CCN(C(=O)c2ccc(-n3c(=O)n(Cc4cccc(C(=O)O)c4)c4ccc(Cl)cc43)cc2)C1 (centres unmarked) [Example 59, 3-((5-chloro-3-(4-(3-methoxypyrrolidine-1-carbonyl)phenyl)-2-oxo-2,3-dihydro-1H-benzo[d]imidazol-1-yl)methyl)benzoic acid]"
2,10 to 100,"CN(C)C(=O)c1ccc(-n2c(=O)n(Cc3cccc(C(=O)O)c3)c3ccc(Cl)cc32)cc1F [Example 36, 3-((5-chloro-3-(4-(dimethylcarbamoyl)-3-fluorophenyl)-2-oxo-2,3-dihydro-1H-benzo[d]imidazol-1-yl)methyl)benzoic acid]"
3,< 10,"O=C(O)c1cccc(C2(n3c(=O)n(-c4ccc(C(=O)N5CCOCC5)cc4)c4cc(Cl)ccc43)CC2)c1 [Example 126, 3-(1-(5-chloro-3-(4-(morpholine-4-carbonyl)phenyl)-2-oxo-2,3-dihydro-1H-benzo[d]imidazol-1-yl)cyclopropyl)benzoic acid]"
4,< 10,"O=C(O)c1cccc(C2(n3c(=O)n(-c4ccc(C(=O)N5CCCCC5)cc4)c4cc(Cl)ccc43)CC2)c1 [Example 64, 3-(1-(5-chloro-2-oxo-3-(4-(piperidin-1-carbonyl)phenyl)-2,3-dihydro-1H-benzo[d]imidazol-1-yl)cyclopropyl)benzoic acid]"
5,100 to 1000,"CCCn1cc(-n2c(=O)n(Cc3cccc(C(=O)O)c3)c3ccc(Cl)cc32)cn1 [Example 84, 3-((5-chloro-2-oxo-3-(1-propyl-1H-pyrazol-4-yl)-2,3-dihydro-1H-benzo[d]imidazol-1-yl)methyl)benzoic acid]"
6,10 to 100,"O=C(O)c1cccc(Cn2c(=O)n(-c3ccc(C(=O)N4CCCC4)cc3)c3cc(Cl)cnc32)c1 [Example 169, 3-((6-chloro-2-oxo-1-(4-(pyrrolidine-1-carbonyl)phenyl)-1,2-dihydro-3H-imidazo[4,5-b]pyridin-3-yl)methyl)benzoic acid]"
7,100 to 1000,"O=C(O)c1cccc(Cn2c(=O)n(-c3ccc(F)cc3)c3cc(Cl)ccc32)c1 [Example 3, 3-((5-chloro-3-(4-fluorophenyl)-2-oxo-2,3-dihydro-1H-benzo[d]imidazol-1-yl)methyl)benzoic acid]"
8,10 to 100,"O=C(O)c1cccc(Cn2c(=O)n(-c3ccc(N4CC(O)C4)cc3)c3c(F)c(Cl)ccc32)c1 [Example 53, 3-((5-chloro-4-fluoro-3-(4-(3-hydroxyazetidin-1-yl)phenyl)-2-oxo-2,3-dihydro-1H-benzo[d]imidazol-1-yl)methyl)benzoic acid]"
9,100 to 1000,"O=C(O)c1cc(F)cc(Cn2c(=O)n(-c3ccccc3)c3cc(Cl)ccc32)c1 [Example 34, 3-((5-chloro-2-oxo-3-phenyl-2,3-dihydro-1H-benzo[d]imidazol-1-yl)methyl)-5-fluorobenzoic acid]"

# The next lines start with the molecule.
row,SMILES,IC50 [nM]
1,"O=C(O)c1cccc(C2(n3c(=O)n(-c4ccc(C5CCCCC5)cc4)c4cc(Cl)ccc43)CC2)c1 [Example 98, 3-(1-(5-chloro-3-(4-cyclohexylphenyl)-2-oxo-2,3-dihydro-1H-benzo[d]imidazol-1-yl)cyclopropyl)benzoic acid]",100 to 1000
2,"O=C(O)c1cccc(Cn2c(=O)n(-c3ccc(C(=O)N4CCCCC4)cc3)c3cc(Cl)ccc32)c1F [Example 57, 3-((5-chloro-2-oxo-3-(4-(piperidine-1-carbonyl)phenyl)-2,3-dihydro-1H-benzo[d]imidazol-1-yl)methyl)-2-fluorobenzoic acid]",< 10
3,"CC(C)Oc1ccc(-n2c(=O)n(Cc3cccc(C(=O)O)c3)c3ccc(Cl)cc32)cc1 [Example 14, 3-((5-chloro-3-(4-isopropoxyphenyl)-2-oxo-2,3-dihydro-1H-benzo[d]imidazol-1-yl)methyl)benzoic acid]",10 to 100
4,"CN(C)c1ccc(-n2c(=O)n(Cc3cccc(C(=O)O)c3)c3cc(Cl)cc(F)c32)cc1 [Example 37, 3-((6-chloro-3-(4-(dimethylamino)phenyl)-4-fluoro-2-oxo-2,3-dihydro-1H-benzo[d]imidazol-1-yl)methyl)benzoic acid]",100 to 1000
5,"CC(C)OC(=O)N1CCN(c2ccc(-n3c(=O)n(Cc4cccc(C(=O)O)c4)c4ccc(Cl)cc43)cc2)CC1 [Example 96, 3-((5-chloro-3-(4-(4-(isopropoxycarbonyl)piperazin-1-yl)phenyl)-2-oxo-2,3-dihydro-1H-benzo[d]imidazol-1-yl)methyl)benzoic acid]",10 to 100
6,"O=C(O)c1cc(F)cc(C2(n3c(=O)n(-c4ccc(N5CC6(COC6)C5)cc4)c4cc(Cl)ccc43)CC2)c1 [Example 191, 3-(1-(3-(4-(2-oxa-6-azaspiro[3.3]heptan-6-yl)phenyl)-5-chloro-2-oxo-2,3-dihydro-1H-benzo[d]imidazol-1-yl)cyclopropyl)-5-fluorobenzoic acid]",< 10
7,"O=C(O)c1cccc(Cn2c(=O)n(-c3ccc(N4CC(O)C4)nc3)c3cc(Cl)ccc32)c1 [Example 77, 3-((5-chloro-3-(6-(3-hydroxyazetidin-1-yl)pyridin-3-yl)-2-oxo-2,3-dihydro-1H-benzo[d]imidazol-1-yl)methyl)benzoic acid]",100 to 1000
8,"O=C(O)c1cc(F)cc(C2(n3c(=O)n(-c4ccc(N5CC6(CCOCC6)C5)cc4)c4cc(Cl)ccc43)CC2)c1 [Example 193, 3-(1-(3-(4-(7-oxa-2-azaspiro[3.5]nonan-2-yl)phenyl)-5-chloro-2-oxo-2,3-dihydro-1H-benzo[d]imidazol-1-yl)cyclopropyl)-5-fluorobenzoic acid]",< 10
9,"CC(C)(CF)c1ccc(-n2c(=O)n(C3(c4cccc(C(=O)O)c4)CC3)c3ccc(Cl)cc32)cc1 [Example 219, 3-(1-(5-chloro-3-(4-(1-fluoro-2-methylpropan-2-yl)phenyl)-2-oxo-2,3-dihydro-1H-benzo[d]imidazol-1-yl)cyclopropyl)benzoic acid]",< 10
10,"O=C(O)c1cccc(C2(n3c(=O)n(-c4ccc(N5CCOCC5)cc4)c4cc(Cl)cnc43)CC2)c1 [Example 222, 3-(1-(6-chloro-1-(4-morpholinophenyl)-2-oxo-1,2-dihydro-3H-imidazo[4,5-b]pyridin-3-yl)cyclopropyl)benzoic acid]",< 10
11,"O=C(O)c1cccc(C2(n3c(=O)n(-c4ccc(C5CCOCC5)cc4)c4cc(Cl)ccc43)CC2)c1F [Example 106, 3-(1-(5-chloro-2-oxo-3-(4-(tetrahydro-2H-pyran-4-yl)phenyl)-2,3-dihydro-1H-benzo[d]imidazol-1-yl)cyclopropyl)-2-fluorobenzoic acid]",< 10
12,"O=C(O)c1cc(F)cc(C2(n3c(=O)n(-c4ccc(N5CCOCC5)cc4)c4cc(Cl)cnc43)CC2)c1 [Example 274, 3-(1-(6-chloro-1-(4-morpholinophenyl)-2-oxo-1,2-dihydro-3H-imidazo[4,5-b]pyridin-3-yl)cyclopropyl)-5-fluorobenzoic acid]",< 10
13,"O=C(O)c1cccc(C2(n3c(=O)n(-c4ccc(C(=O)N5CC(O)C5)cc4)c4cc(Cl)cnc43)CC2)c1F [Example 232, 3-(1-(6-chloro-1-(4-(3-hydroxyazetidine-1-carbonyl)phenyl)-2-oxo-1,2-dihydro-3H-imidazo[4,5-b]pyridin-3-yl)cyclopropyl)-2-fluorobenzoic acid]",< 10
14,"O=C(O)c1cccc(Cn2c(=O)n(-c3cnc(N4CCOCC4)nc3)c3cc(Cl)ccc32)c1 [Example 83, 3-((5-chloro-3-(2-morpholinopyrimidin-5-yl)-2-oxo-2,3-dihydro-1H-benzo[d]imidazol-1-yl)methyl)benzoic acid]",100 to 1000
